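How tested: cells in 96-well plates exposed to compound for 48 hours at five concentrations. Abbreviation: GI50, concentration required for 50% inhibition of growth.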 Activity calls are given as the source filed them. Rule as the data show it: active = GI50 up to about 1.1 µM and inactive = higher.
Key:
Experiment in all cases: inhibition of tumour cell growth, NCI panel, 48 h
[1] = tested on: UACC-62
[2] = tested on: SR
[3] = tested on: SNB-75
[4] = tested on: TK-10
[5] = tested on: SK-MEL-5
[6] = tested on: SW-620
[7] = tested on: Hs-578T
[8] = tested on: CCRF-CEM
[9] = tested on: SF-295
[10] = tested on: RXF 393
[11] = tested on: SN12C
[12] = tested on: NCI-H460
[13] = tested on: MCF7
[14] = tested on: HOP-62
[15] = tested on: MDA-MB-435
[16] = tested on: SF-539
[17] = tested on: COLO 205
[18] = tested on: KM12
[19] = tested on: RPMI-8226
[20] = tested on: A498
[21] = tested on: U-251
[22] = tested on: HCT-116
[23] = tested on: HT-29
[24] = tested on: K562
[25] = tested on: SK-OV-3
[26] = tested on: MOLT-4
[27] = tested on: A549
[28] = tested on: NCI-H23
[29] = tested on: HL-60
[30] = tested on: HCC 2998
[31] = tested on: MDA-MB-231
[32] = tested on: EKVX
[33] = tested on: IGROV-1
[34] = tested on: CAKI-1
[35] = tested on: OVCAR-5
[36] = tested on: SK-MEL-2
[37] = tested on: NCI/ADR-RES
[38] = tested on: SF-268
[39] = tested on: UO-31
[40] = tested on: OVCAR-8
[41] = tested on: SNB-19
[42] = tested on: BT-549
[43] = tested on: NCI-H522
[44] = tested on: ACHN
[45] = tested on: HCT-15
[46] = tested on: M14
[47] = tested on: NCI-H226
[48] = tested on: T47D
[49] = tested on: LOX IMVI
[50] = tested on: UACC-257
[51] = tested on: DU-145
[52] = tested on: 786-0
[53] = tested on: Malme-3M
[54] = tested on: OVCAR-3
[55] = tested on: PC-3
[56] = tested on: HOP-92
[57] = tested on: OVCAR-4
[58] = tested on: SK-MEL-28
[59] = tested on: MDA-N

With `CCCCCCCCCC[C@@H](O)[C@H]1CC[C@H]([C@H]2CC[C@H]([C@H](O)CCCCCCCCCC[C@@H]3CC(CC(C)=O)C(=O)O3)O2)O1` (stereo not given in full) the GI50 [1] was 1.11 µM (active), the GI50 [2] was 0.562 µM (active) and the GI50 [3] was > 50 µM (inactive). For the same compound, the GI50 [4] was > 39.4 µM (inactive), the GI50 [5] was 0.0929 µM (active) and the GI50 [6] was 26.2 µM (inactive). The GI50 [7] was 7.19 µM (inactive), the GI50 [8] was 9.23 µM (inactive) and the GI50 [9] was 1.94 µM (inactive). For the same compound, the GI50 [10] was 20.7 µM (inactive), the GI50 [11] was 33.4 µM (inactive) and the GI50 [12] was 0.254 µM (active). The GI50 [13] was 13.8 µM (inactive), the GI50 [14] was 46.5 µM (inactive) and the GI50 [15] was > 39.1 µM (inactive). For the same compound, the GI50 [16] was 17.3 µM (inactive), the GI50 [17] was 13 µM (inactive) and the GI50 [18] was 15.8 µM (inactive). The GI50 [19] was 0.231 µM (active), the GI50 [20] was > 28.5 µM (inactive) and the GI50 [21] was > 50 µM (inactive). For the same compound, the GI50 [22] was 0.112 µM (active), the GI50 [23] was 4.41 µM (inactive) and the GI50 [24] was 0.374 µM (active). The GI50 [25] was 31.8 µM (inactive), the GI50 [26] was 3.77 µM (inactive) and the GI50 [27] was 9.93 µM (inactive). The GI50 [28] was 1.7 µM (inactive), the GI50 [29] was 5.61 µM (inactive) and the GI50 [30] was 41.3 µM (inactive). The GI50 [31] was > 50 µM (inactive), the GI50 [32] was 7.43 µM (inactive) and the GI50 [33] was > 34.4 µM (inactive). The GI50 [34] was > 47.1 µM (inactive), the GI50 [35] was > 50 µM (inactive) and the GI50 [36] was > 40.9 µM (inactive). The GI50 [37] was 4.69 µM (inactive), the GI50 [38] was > 50 µM (inactive) and the GI50 [39] was 23.7 µM (inactive). For the same compound, the GI50 [40] was 7.66 µM (inactive), the GI50 [41] was > 47.3 µM (inactive) and the GI50 [42] was 46.2 µM (inactive). The GI50 [43] was 7.87 µM (inactive), the GI50 [44] was > 28.5 µM (inactive) and the GI50 [45] was 28.3 µM. For the same compound, the GI50 [46] was 26.3 µM (inactive), the GI50 [47] was 23.8 µM (inactive) and the GI50 [48] was > 17.2 µM (inactive). For the same compound, the GI50 [49] was 1.12 µM (inactive), the GI50 [50] was 0.914 µM (active) and the GI50 [51] was > 50 µM (inactive). For the same compound, the GI50 [52] was 23.2 µM (inactive), the GI50 [53] was 16 µM (inactive) and the GI50 [54] was 15.1 µM (inactive). For the same compound, the GI50 [55] was 21.7 µM (inactive), the GI50 [56] was > 50 µM (inactive) and the GI50 [57] was 28.7 µM (inactive). The GI50 [58] was > 50 µM (inactive).

For `Cc1ccc(S(=O)(=O)NC(=O)NC(CC(=O)O)C(=O)O)cc1` (stereo not given), the GI50 [1] was > 100 µM (inactive), the GI50 [2] was > 100 µM (inactive) and the GI50 [3] was > 100 µM (inactive). For the same compound, the GI50 [4] was > 100 µM (inactive), the GI50 [5] was > 100 µM (inactive) and the GI50 [6] was > 100 µM (inactive). For the same compound, the GI50 [7] was > 100 µM (inactive), the GI50 [8] was > 100 µM (inactive) and the GI50 [9] was > 100 µM (inactive). The GI50 [10] was > 100 µM (inactive), the GI50 [11] was > 100 µM (inactive) and the GI50 [12] was > 100 µM (inactive). The GI50 [13] was > 100 µM (inactive), the GI50 [14] was > 100 µM (inactive) and the GI50 [16] was > 100 µM (inactive). For the same compound, the GI50 [17] was > 100 µM (inactive), the GI50 [18] was > 100 µM (inactive) and the GI50 [19] was > 100 µM (inactive). For the same compound, the GI50 [21] was > 100 µM (inactive), the GI50 [22] was > 100 µM (inactive) and the GI50 [23] was > 100 µM (inactive). The GI50 [24] was > 100 µM (inactive), the GI50 [25] was > 100 µM (inactive) and the GI50 [26] was > 100 µM (inactive). For the same compound, the GI50 [27] was > 100 µM (inactive), the GI50 [28] was > 100 µM (inactive) and the GI50 [29] was > 100 µM (inactive). For the same compound, the GI50 [31] was > 100 µM (inactive), the GI50 [33] was > 100 µM (inactive) and the GI50 [35] was > 100 µM (inactive). The GI50 [36] was > 100 µM (inactive), the GI50 [37] was > 100 µM (inactive) and the GI50 [38] was > 100 µM (inactive). For the same compound, the GI50 [39] was > 100 µM (inactive), the GI50 [40] was > 100 µM (inactive) and the GI50 [59] was > 100 µM (inactive). The GI50 [41] was > 100 µM (inactive), the GI50 [42] was > 100 µM (inactive) and the GI50 [43] was > 100 µM (inactive). The GI50 [44] was > 100 µM (inactive), the GI50 [45] was over 100 µM and the GI50 [46] was > 100 µM (inactive). For the same compound, the GI50 [48] was > 100 µM (inactive), the GI50 [49] was > 100 µM (inactive) and the GI50 [50] was > 100 µM (inactive). The GI50 [51] was > 100 µM (inactive), the GI50 [52] was > 100 µM (inactive) and the GI50 [53] was > 100 µM (inactive). The GI50 [55] was > 100 µM (inactive), the GI50 [56] was > 100 µM (inactive) and the GI50 [57] was > 100 µM (inactive). For the same compound, the GI50 [58] was > 100 µM (inactive).
